Test systems include DLD-1; DMS-114; DMS-273; HCC 2998; HCT-15; HOP-62; IGROV-1; K562; KM-20L2; MCF7; OVCAR-3; RXF 393; SF-268; SF-295; SK-MEL-2; SNB-19; U-251; ACHN; PC-3; TK-10.
Assay in all cases: DTP human tumour cell line panel, 48 h

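Protocol summary: plate cells (96-well), add compound at 5 concentrations, incubate 48 h, interpolate endpoints linearly. GI50 marks 50% less growth.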 Calls of active or inactive are those of the source. No stated cut-off is given here; in the data, active = GI50 up to about 1.1 µM and inactive = higher.

By GI50 is commonly meant the concentration at which growth is held to half of that of the control. Regarding `CNC(=O)C(C)C1CCC2(C)C=CC(=O)C(C)=C2C1O` (centres undefined), the GI50 with DLD-1 was > 100 µM (inactive); with DMS-114, > 100 µM (inactive); in the experiment on DMS-273, > 37.9 µM (inactive); with HCC 2998, 67.3 µM (inactive); in the experiment on HCT-15, more than 100 µM; in the experiment on HOP-62, > 100 µM (inactive). Further, the GI50 with IGROV-1 is > 55.2 µM (inactive); in the experiment with K562, > 100 µM (inactive); with KM-20L2, > 100 µM (inactive); in the experiment on MCF7, > 100 µM (inactive); in the experiment on OVCAR-3 it was > 100 µM (inactive); in the experiment on RXF 393, > 100 µM (inactive). In addition, the GI50 was > 100 µM (inactive) in the experiment on SF-268; > 44.8 µM (inactive) with SF-295; > 100 µM (inactive) in the experiment with SK-MEL-2; > 100 µM (inactive) in the experiment with SNB-19; > 44.8 µM (inactive) in the experiment on U-251.

In the case of `S=c1c2nc[nH]c2ncn1CCSC1=NC=NC2=NC=NC21` (centres undefined), the GI50 in the experiment on ACHN is > 100 µM (inactive); in the experiment with DLD-1, > 100 µM (inactive); with DMS-114 it was > 100 µM (inactive); in the experiment with DMS-273, 64.4 µM (inactive); with HCC 2998, > 100 µM (inactive); in the experiment on HCT-15, more than 100 µM. Besides, the GI50 in the experiment with HOP-62 was 66.1 µM (inactive); with IGROV-1, > 100 µM (inactive); in the experiment on K562, 30.6 µM (inactive); with KM-20L2, > 100 µM (inactive); in the experiment on MCF7, > 100 µM (inactive); with OVCAR-3, 57.1 µM (inactive). Moreover, the GI50 with PC-3, in the experiment on RXF 393, with SF-268, with SF-295, in the experiment on SK-MEL-2 and with SNB-19 was > 100 µM (inactive) each time. The GI50 in the experiment with TK-10 is > 76.2 µM (inactive); with U-251, > 100 µM (inactive).

Regarding `CN(C)CCNC(=O)c1cccc2cc3cc(O)ccc3nc12`, the GI50 was 1.42 µM (inactive) in the experiment with DLD-1; 1.37 µM (inactive) in the experiment with DMS-114; 0.662 µM (active) in the experiment on DMS-273; 2.2 µM (inactive) with HCC 2998; 1.23 µM with HCT-15; 1.06 µM (active) with HOP-62. Besides, the GI50 in the experiment with IGROV-1 is 1.37 µM (inactive); in the experiment with K562, 1.43 µM (inactive); in the experiment on KM-20L2, 2.44 µM (inactive); in the experiment on MCF7, 0.473 µM (active); in the experiment on OVCAR-3 it was 1.13 µM (inactive); in the experiment with RXF 393, 1.11 µM (active). Further, the GI50 was 1.48 µM (inactive) with SF-268; 1 µM (active) in the experiment on SF-295; 2.14 µM (inactive) with SK-MEL-2; 0.869 µM (active) with SNB-19; 1.36 µM (inactive) in the experiment with U-251.

Source of the values: ChEMBL document CHEMBL1201862, “PubChem BioAssay data set” (2004).
